Reference: patent publication US10294202B2, “Pyrrolidinones as herbicides” (FMC Corporation, priority 2013, dated 2019)

Experiments:
barnyardgrass [1] = experiment: Test A pre-/postemergence herbicide test; type: in vivo, Echinochloa crus-galli
Outline: (§1)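 Visual 0–100 ratings (100 = complete control) made about 10 days after treatment, greenhouse-held plants compared with untreated controls. Treatments: postemergence sprays on one- to two-leaf plants (2–10 cm tall) and preemergence directed soil sprays after planting in loam–sand, chemicals formulated in non-phytotoxic solvent containing surfactant.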

crabgrass, large = experiment: Test A pre-/postemergence herbicide test; type: in vivo, Digitaria sanguinalis
Outline: as §1

giant foxtail = experiment: Test A pre-/postemergence herbicide test; type: in vivo, Setaria faberii
Outline: as §1

morningglory = experiment: Test A pre-/postemergence herbicide test; type: in vivo, Ipomoea spp.
Outline: as §1

pigweed = experiment: Test A pre-/postemergence herbicide test; type: in vivo, Amaranthus retroflexus
Outline: as §1

velvetleaf = experiment: Test A pre-/postemergence herbicide test; type: in vivo, Abutilon theophrasti
Outline: as §1

wheat = experiment: Test A pre-/postemergence herbicide test; type: in vivo, Triticum aestivum
Outline: as §1

corn = experiment: Test A pre-/postemergence herbicide test; type: in vivo, Zea mays
Outline: as §1

rice [2] = experiment: Test B flooded paddy test; type: in vivo, Oryza sativa; details: 250 g ai/ha, Flood; scale of 0 to 100 where 0 is no effect and 100 is complete control
Outline: (§2)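 Plants were grown to the 2-leaf stage, then pots were flooded to 3 cm above the soil and compound was applied directly into the paddy water, with that depth held throughout. After 13 to 15 days in a greenhouse, injury was rated visually against untreated controls on a 0 to 100 scale (100 = complete control).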

sedge, umbrella [3] = experiment: Test B flooded paddy test; type: in vivo, Cyperus difformis; details: 250 g ai/ha, Flood; scale of 0 to 100 where 0 is no effect and 100 is complete control
Outline: as §2

ducksalad [4] = experiment: Test B flooded paddy test; type: in vivo, Heteranthera limosa; details: 250 g ai/ha, Flood; scale of 0 to 100 where 0 is no effect and 100 is complete control
Outline: as §2

barnyardgrass [5] = experiment: Test B flooded paddy test; type: in vivo, Echinochloa crus-galli; details: 250 g ai/ha, Flood; scale of 0 to 100 where 0 is no effect and 100 is complete control
Outline: as §2

rice [6] = experiment: Test C flooded paddy test; type: in vivo, Oryza sativa; details: Flood
Outline: (§3)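 Plants grown to the 2-leaf stage; pots flooded to 3 cm above soil and compound applied directly into the paddy water, depth kept throughout. Greenhouse 13 to 15 days, then visual rating vs untreated controls on 0–100 scale (0 no effect, 100 complete control); dash means no result.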

sedge, umbrella [7] = experiment: Test C flooded paddy test; type: in vivo, Cyperus difformis; details: Flood
Outline: as §3

ducksalad [8] = experiment: Test C flooded paddy test; type: in vivo, Heteranthera limosa; details: Flood
Outline: as §3

barnyardgrass [9] = experiment: Test C flooded paddy test; type: in vivo, Echinochloa crus-galli; details: Flood
Outline: as §3

[10] = Postemergence, 125 g ai/ha, 0 to 100 scale, 0 no effect, 100 complete control
[11] = Postemergence, 500 g ai/ha, 0 to 100 scale (0 no effect, 100 complete control)
[12] = Preemergence, 125 g ai/ha, visual rating on 0 to 100 scale (0 no effect, 100 complete control)
[13] = preemergence, 500 g ai/ha, 0 to 100 scale
[14] = 125 g ai/ha, scale of 0 to 100 where 0 is no effect and 100 is complete control, 13 to 15 days

O=C1NCC(c2ccc(Cl)cc2)C1C(=O)Nc1ccccc1F (racemic) [Compound 87]
Plant response rating, Barnyardgrass (barnyardgrass [1]; [10]): 50
Plant response rating, Barnyardgrass (barnyardgrass [1]; [11]): 80
Barnyardgrass plant response rating (barnyardgrass [1]; [12]): 20
Plant response rating, Barnyardgrass (barnyardgrass [1]; preemergence, 500 g ai/ha, 0 to 100 scale (0 no effect, 100 complete control)): 80
Plant response rating, Crabgrass, Large (crabgrass, large; [10]): 60
Plant response rating, Crabgrass, Large (crabgrass, large; [11]): 80
Crabgrass, Large plant response rating (crabgrass, large; [12]): 80
Plant response rating, Crabgrass, Large (crabgrass, large; [13]): 90
Plant response rating, Foxtail, Giant (giant foxtail; [10]): 50
Plant response rating, Foxtail, Giant (giant foxtail; [11]): 80
Foxtail, Giant plant response rating (giant foxtail; [12]): 60
Plant response rating, Foxtail, Giant (giant foxtail; [13]): 90
Plant response rating, Morningglory (morningglory; [10]): 0
Plant response rating, Morningglory (morningglory; [11]): 10
Morningglory plant response rating (morningglory; [12]): 0
Plant response rating, Morningglory (morningglory; [13]): 0
Plant response rating, Pigweed (pigweed; [10]): 0
Plant response rating, Pigweed (pigweed; [11]): 20
Pigweed plant response rating (pigweed; [12]): 0
Plant response rating, Pigweed (pigweed; [13]): 0
Plant response rating, Velvetleaf (velvetleaf; [10]): 0
Plant response rating, Velvetleaf (velvetleaf; [11]): 0
Velvetleaf plant response rating (velvetleaf; [12]): 0
Plant response rating, Velvetleaf (velvetleaf; [13]): 0
Plant response rating, Wheat (wheat; [10]): 0
Plant response rating, Wheat (wheat; [11]): 20
Wheat plant response rating (wheat; [12]): 0
Plant response rating, Wheat (wheat; [13]): 10
Plant response rating, Corn (corn; [10]): 0
Plant response rating, Corn (corn; [11]): 0
Corn plant response rating (corn; [12]): 0
Plant response rating, Corn (corn; [13]): 0
Plant response rating, Rice (rice [2]): 0
Plant response rating, Sedge, Umbrella (sedge, umbrella [3]): 0
Plant response rating, Ducksalad (ducksalad [4]): 80
Plant response rating, Barnyardgrass (barnyardgrass [5]): 60
Plant response rating, Rice (rice [6]; [14]): 0
Plant response rating, Rice (rice [6]; 250 g ai/ha, scale 0 to 100): 0
Plant response rating, Rice (rice [6]; 500 g ai/ha, scale 0 to 100): 0
Plant response rating, Rice (rice [6]; 1000 g ai/ha, scale 0 to 100): 30
Plant response rating, Sedge, Umbrella (sedge, umbrella [7]; [14]): 0
Plant response rating, Sedge, Umbrella (sedge, umbrella [7]; 250 g ai/ha, scale 0 to 100): 0
Plant response rating, Sedge, Umbrella (sedge, umbrella [7]; 500 g ai/ha, scale 0 to 100): 0
Plant response rating, Sedge, Umbrella (sedge, umbrella [7]; 1000 g ai/ha, scale 0 to 100): 0
Plant response rating, Ducksalad (ducksalad [8]; [14]): 75
Plant response rating, Ducksalad (ducksalad [8]; 250 g ai/ha, scale 0 to 100): 95
Plant response rating, Ducksalad (ducksalad [8]; 500 g ai/ha, scale 0 to 100): 100
Plant response rating, Ducksalad (ducksalad [8]; 1000 g ai/ha, scale 0 to 100): 100
Plant response rating, Barnyardgrass (barnyardgrass [9]; [14]): 0
Plant response rating, Barnyardgrass (barnyardgrass [9]; 250 g ai/ha, scale 0 to 100): 0
Plant response rating, Barnyardgrass (barnyardgrass [9]; 500 g ai/ha, scale 0 to 100): 25
Plant response rating, Barnyardgrass (barnyardgrass [9]; 1000 g ai/ha, scale 0 to 100): 40
